{
  "source": "paper PMC2628638",
  "about": "“Catalytic inhibition of topoisomerase II by a novel rationally designed ATP-competitive purine analogue” (BMC Chemical Biology, 2009)",
  "key": {"topoisomerase II beta": {"target": "T1, topoisomerase II beta (Homo sapiens, UniProt Q02880)", "T1 construct": "endogenous in cells; host or cells: HL-60 nuclear extract", "T1 sequence (Q02880 whole entry)": "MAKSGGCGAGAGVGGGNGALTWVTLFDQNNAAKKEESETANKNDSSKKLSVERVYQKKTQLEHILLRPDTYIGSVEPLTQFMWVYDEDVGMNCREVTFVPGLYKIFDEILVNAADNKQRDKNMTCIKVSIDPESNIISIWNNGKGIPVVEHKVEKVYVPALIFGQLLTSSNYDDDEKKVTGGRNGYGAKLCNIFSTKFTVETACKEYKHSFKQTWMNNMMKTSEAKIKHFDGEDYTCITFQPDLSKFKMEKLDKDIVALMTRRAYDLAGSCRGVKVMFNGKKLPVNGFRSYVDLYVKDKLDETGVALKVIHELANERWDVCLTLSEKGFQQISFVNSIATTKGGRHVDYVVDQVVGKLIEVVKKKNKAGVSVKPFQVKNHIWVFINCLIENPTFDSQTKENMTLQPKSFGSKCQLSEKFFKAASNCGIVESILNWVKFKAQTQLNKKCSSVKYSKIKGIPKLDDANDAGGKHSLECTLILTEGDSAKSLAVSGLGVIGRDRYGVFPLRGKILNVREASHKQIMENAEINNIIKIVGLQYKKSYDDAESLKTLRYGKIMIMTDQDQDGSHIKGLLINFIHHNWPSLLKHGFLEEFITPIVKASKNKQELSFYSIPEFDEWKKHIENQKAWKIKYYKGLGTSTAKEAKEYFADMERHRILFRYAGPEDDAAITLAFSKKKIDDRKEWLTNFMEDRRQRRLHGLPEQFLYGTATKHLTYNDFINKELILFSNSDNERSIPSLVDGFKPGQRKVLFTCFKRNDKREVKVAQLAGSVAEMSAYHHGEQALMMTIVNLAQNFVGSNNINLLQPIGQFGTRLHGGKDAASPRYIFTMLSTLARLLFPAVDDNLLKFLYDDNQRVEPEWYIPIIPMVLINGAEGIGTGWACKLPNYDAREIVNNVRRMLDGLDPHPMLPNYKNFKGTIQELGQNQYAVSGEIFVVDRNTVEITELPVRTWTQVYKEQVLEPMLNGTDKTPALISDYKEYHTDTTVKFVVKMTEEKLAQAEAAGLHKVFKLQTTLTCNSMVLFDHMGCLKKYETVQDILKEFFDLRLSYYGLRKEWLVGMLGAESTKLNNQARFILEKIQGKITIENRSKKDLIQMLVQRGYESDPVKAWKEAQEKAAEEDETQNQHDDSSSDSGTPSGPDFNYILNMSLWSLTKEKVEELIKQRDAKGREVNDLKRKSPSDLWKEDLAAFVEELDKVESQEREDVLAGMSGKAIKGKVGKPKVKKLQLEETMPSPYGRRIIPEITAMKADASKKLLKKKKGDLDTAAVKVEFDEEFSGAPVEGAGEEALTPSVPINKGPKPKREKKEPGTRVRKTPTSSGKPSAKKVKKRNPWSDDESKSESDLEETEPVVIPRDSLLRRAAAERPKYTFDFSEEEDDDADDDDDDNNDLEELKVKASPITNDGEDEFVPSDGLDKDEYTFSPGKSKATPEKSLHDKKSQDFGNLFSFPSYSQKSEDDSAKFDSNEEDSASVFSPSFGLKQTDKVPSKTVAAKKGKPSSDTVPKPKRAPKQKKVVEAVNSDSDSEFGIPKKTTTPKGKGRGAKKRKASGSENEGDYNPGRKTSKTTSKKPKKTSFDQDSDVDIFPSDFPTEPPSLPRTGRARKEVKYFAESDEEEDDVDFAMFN", "assay": "Affinity precipitation with biotinylated purine analogue 2 from HL-60 nuclear extracts", "type": "binding", "conditions": "1 μM biotinylated analogue 2; competitor in excess (10 μM), QAP 1 also at equimolar concentration", "method": "Topoisomerase II α and β were affinity precipitated with biotinylated inhibitor as follows. Exponentially growing HL-60 cells were collected on ice and incubated with hypotonic buffer (10 mM HEPES pH 7.5, 1.5 mM MgCl2, 10 mM KCl, 0.5 mM DTT, 0.5 mM PMSF, 1× protease inhibitor cocktail (Complete Mini, Roche Diagnostics GmbH)) for 15 minutes, then 0.6% v/v NP-40 was added and cells were disrupted using a Dounce homogenizer. Lysates were transferred to 1.5 ml Protein LoBind Eppendorf tubes and nuclei were collected after centrifugation at 8000 rpm for 10 minutes and washed twice with hypotonic buffer. To extract and release chromatin associated topoisomerase II nuclei were incubated for 30 minutes in DNAse buffer (20 mM Tris HCl pH 7.5, 5 mM MgCl2, 1 mM CaCl2, 25 mM NaCl, 0.5 mM EDTA, 1% NP-40, 1 mM DTT, 1 × protease inhibitor cocktail, 0.1 mM PMSF) containing 40 U DNAse I (Roche Diagnostics GmbH) followed by addition of twice concentrated nuclear extraction buffer (20 mM HEPES pH 7.5, 3 mM MgCl2, 20 mM KCl, 50 mM β-glycerophosphate, 840 mM NaCl, 1 mM EDTA, 50 mM PNPP, 1 mM DTT, 1 mM PMSF) and rotation for 1 h in the coldroom. The soluble fraction was obtained following centrifugation at 13000 rpm for 15 minutes. 25 μg nuclear extract were used for the affinity precipitation. The salt concentration was adjusted to 150 mM with nuclear extraction buffer (without NaCl) and the sample volume was toped off to 200 μl with precipitation buffer (50 mM HEPES pH 7.4, 150 mM NaCl, 25 mM β-glycerophosphate, 25 mM NaF, 5 mM EGTA, 1 mM EDTA, 15 mM PPI, 1 mM PMSF). Compounds were preincubated for 30 minutes prior addition of biotinylated purine analogue 2 for 2 h. Streptavidin agarose beads (Novagen, 69203) were washed twice with PBS, blocked for 30 minutes with PBS containing 1% BSA, washed twice with PBS and finally with precipitation buffer. 40 μl equilibrated streptavidin agarose beads were added to the sample and incubation was continued for 1 h. Beads were pelleted by centrifugation at 7000 rpm for 5 minutes and washed thrice with precipitation buffer. During the last wash the beads were transferred to a new tube and the bound fraction was released by boiling for 5 minutes in Laemmli sample buffer. Topoisomerase II α and β were detected by Western blot as described below."}, "HL-60 cells": {"system": "HL-60 cells", "assay": "Chromosome segregation assay (chromosome spreads)", "type": "cell-based", "conditions": "10 μM with 1 mM caffeine for 2 hours after 6 hours release", "method": "HL-60 cells were treated overnight for 16 hours with 2 μg/ml aphidicolin (Sigma-Aldrich corporation, St. Louis, MO) and released by washing twice PBS and resuspending into fresh medium. After 6 hours release the cells were treated with 1 mM caffeine (Lancaster Synthesis, Heysham, Lancashire, UK) and with catalytic topoisomerase II inhibitor or vehicle for 2 hours. Cells were washed once with PBS and incubated with 56 mM KCl hypotonic solution for 30 minutes. Cells were pelleted and carefully resuspended in Carnoy's fixative. Cells were pelleted as above, supernatant was removed and cells were resuspended again in 2 ml fixative. Chromosome spreads were prepared by dropping 50 μl cell suspension onto microscopy slides. The slides were allowed to dry and then stained for 10 seconds in Hoechst 33342 dye (Molecular Probes, Eugene, Oregon, prepared 1:1000 in PBS from 10 mg/ml stock). After drying, mounting media (Vectashield®, Vector Laboratories, Burlingame, CA) and a cover slip were added. Samples were observed using an immersion oil lens (100 ×, Nikon, Plan Apo VC) by fluorescence microscopy (Nikon Eclipse, E600) in the DAPI channel. Images were acquired using analySIS® software (Soft Imaging System GmbH, Münster, Germany). Representative images were converted to grayscale, inverted and contrast adjusted with Adobe Photoshop. Mitotic cells were categorized as described."}, "topoisomerase II alpha": {"target": "topoisomerase II alpha (Homo sapiens, UniProt P11388)", "sequence (P11388 whole entry)": "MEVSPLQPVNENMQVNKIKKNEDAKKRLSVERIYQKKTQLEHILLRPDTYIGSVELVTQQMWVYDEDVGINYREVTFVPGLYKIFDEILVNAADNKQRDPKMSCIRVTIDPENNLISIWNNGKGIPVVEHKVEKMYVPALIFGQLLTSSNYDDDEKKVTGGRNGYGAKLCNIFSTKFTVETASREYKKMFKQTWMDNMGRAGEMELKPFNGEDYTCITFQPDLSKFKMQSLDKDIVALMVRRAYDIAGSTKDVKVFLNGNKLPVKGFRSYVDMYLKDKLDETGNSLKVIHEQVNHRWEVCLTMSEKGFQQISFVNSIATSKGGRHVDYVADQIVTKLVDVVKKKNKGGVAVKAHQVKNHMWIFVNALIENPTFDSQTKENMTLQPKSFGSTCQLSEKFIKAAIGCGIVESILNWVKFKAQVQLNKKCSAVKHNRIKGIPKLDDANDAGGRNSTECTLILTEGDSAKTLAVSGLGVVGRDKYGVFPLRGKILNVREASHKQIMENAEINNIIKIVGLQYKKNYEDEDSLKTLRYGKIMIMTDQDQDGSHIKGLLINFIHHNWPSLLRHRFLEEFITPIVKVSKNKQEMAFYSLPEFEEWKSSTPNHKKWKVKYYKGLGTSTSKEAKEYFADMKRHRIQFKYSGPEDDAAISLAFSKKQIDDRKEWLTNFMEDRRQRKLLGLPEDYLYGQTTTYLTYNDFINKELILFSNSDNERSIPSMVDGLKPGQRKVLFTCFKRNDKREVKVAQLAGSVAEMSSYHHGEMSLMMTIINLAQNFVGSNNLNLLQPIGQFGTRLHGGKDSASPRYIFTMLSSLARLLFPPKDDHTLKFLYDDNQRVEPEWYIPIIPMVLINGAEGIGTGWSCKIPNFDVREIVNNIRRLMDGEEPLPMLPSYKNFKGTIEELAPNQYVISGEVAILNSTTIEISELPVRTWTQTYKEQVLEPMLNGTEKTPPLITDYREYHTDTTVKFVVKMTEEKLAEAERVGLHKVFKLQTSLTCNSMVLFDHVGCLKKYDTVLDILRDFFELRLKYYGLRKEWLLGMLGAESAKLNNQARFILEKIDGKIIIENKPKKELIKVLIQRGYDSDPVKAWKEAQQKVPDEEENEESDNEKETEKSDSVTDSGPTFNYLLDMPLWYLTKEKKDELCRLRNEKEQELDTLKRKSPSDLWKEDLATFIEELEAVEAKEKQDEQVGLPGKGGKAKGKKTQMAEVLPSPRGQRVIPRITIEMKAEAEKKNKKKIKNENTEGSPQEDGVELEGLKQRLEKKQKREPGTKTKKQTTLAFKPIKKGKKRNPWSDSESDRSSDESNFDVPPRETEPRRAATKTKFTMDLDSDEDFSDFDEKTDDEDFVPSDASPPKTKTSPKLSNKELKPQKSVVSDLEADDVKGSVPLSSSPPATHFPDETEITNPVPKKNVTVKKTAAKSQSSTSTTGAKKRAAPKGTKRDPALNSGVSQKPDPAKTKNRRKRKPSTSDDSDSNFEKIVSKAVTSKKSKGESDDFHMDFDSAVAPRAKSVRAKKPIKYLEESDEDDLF", "assay": "DNA-dependent ATPase assay (malachite green)", "type": "biochemical", "design": "screened in an ATPase assay using purified full length tagged human topoisomerase II alpha; made in house; host or cells: Sf21 insect cells, baculovirus (pFastBac1)", "method": "DNA-dependent ATP hydrolysis of human topoisomerase II α was monitored by measuring the production of inorganic phosphate using acidic molybdate and malachite green. Specific ATPase activity of every batch was tested in a time-course to determine optimal incubation times and enzyme concentrations within the linear range of the assay. Reactions thus contained 10 – 40 nM topoisomerase II (dimer concentration) in reaction buffer (10 mM Tris HCl pH 7.5, 175 mM KCl, 0.1 mM EDTA, 5 mM MgCl2, 2 mM DTT, 2.5% glycerol and 1.7 nM supercoiled pUC18). The specific activity of the human topoisomerase II α enzyme measured in the ATPase assay was 0.24 μmol PO4·min^-1·mg^-1. […] Compounds at the indicated concentrations were added as serial dilutions prepared in DMSO and preincubated for 10 minutes at 37°C on an orbital shaker. Reactions were started by the addition of 400 μM ATP (Sigma, catalog number A2383) and allowed to proceed for 30 minutes. Reactions were terminated by the addition of 200 μl malachite green reagent and the OD was read immediately at 630 nm on a SpectraMax Plus microtiter plate reader using SoftMax Pro software (Molecular Devices). For kinetic analysis, reactions were carried out in duplicate as described above either in the presence of vehicle (DMSO) or QAP 1. Following a preincubation for 5 minutes, ATP was added at the indicated concentrations to start the reactions, which were allowed to proceed for 17 minutes before stopping and reading as above. From these values the OD values obtained at each respective ATP concentration without enzyme were subtracted for background correction. […] A compromise was found by carrying out the competition experiments with a single concentration of the inhibitor that gave a good inhibition of enzyme activity while keeping a measurable signal. The equations used to fit these experiments are: […]\nEach competition experiment was fitted (Grafit version 5.04 – Erithacus Software) with these 3 equations and the models that gave unrealistic inhibition constants (above 10 mM) and/or large standard errors (similar to the value of the fitted parameter) were rejected. Then, the F-test was carried out to identify the best fitting model. An alternative method was used to determine the mode of action of the inhibitor. Dose-response experiments were carried out at different ATP concentrations and the corresponding IC50s determined. According to the Cheng-Prusoff equation for linear competitive inhibition: […]\nThe IC50 of a competitive inhibitive inhibitor should increase in a linear fashion with the concentration of ATP. The measured IC50s were then plotted in function of the ATP concentrations and linear regression analyses were carried out. […] Mean Km and Vmax values were calculated from two independent experiments."}},
  "data": [
    {"molecule": "CCc1nc2nc(Nc3ccc4nc(OCCN5CCOCC5)ccc4c3)nc(NC(C)(C)C)c2[nH]1", "note": "[QAP 1]", "values": [
      {"measurement": "competition of the interaction of biotinylated purine analogue 2 with topoisomerase II beta", "setting": "topoisomerase II beta", "result": "abolished"},
      {"measurement": "chromosome segregation at mitosis", "setting": "HL-60 cells", "result": "mitosis was also severely perturbed during anaphase"},
      {"measurement": "IC50", "setting": "topoisomerase II alpha; full length tagged human topoisomerase II alpha, 400 μM ATP", "result": "128 ± 21", "unit": "nM"},
      {"measurement": "mode of inhibition (kinetic analysis, F-test)", "setting": "topoisomerase II alpha; non-linear regression, competitive vs uncompetitive vs mixed models", "result": "ATP-competitive inhibitor"}
    ]}
  ]
}
